Key:
[1] = type: physicochemical; conditions: urea + 10.5% ES + 500 ppm nBTPT as Amiplus liquid (Exp. H-M); open pots in nissenhut; measured after 28 days (ranking given as after 14 days)
Procedure: (§1) 1.2 kg of solid fertilizer material was added to a lab scale drum. In a next step, the nBTPT material was slowly added and subsequently followed, if applied, by an alkaline or alkaline-forming inorganic or organic compound. A residence time of 10 minutes was applied and the rotating speed of the drum was consequently the same in each experiment. In case a moisture-repellent coating was added, a nebulizer was used and, depending on the order of addition, the moisture-repellent coating was added before or after addition of the nBTPT material. Before use, the moisture-repellent coating was preheated to 80° C.
Typically, a day/night cycle is generated in the nissenhut, with temperature fluctuations between 0 to 42° C. and fluctuations of relative humidity between 20 and 90%, which can be compared with real life storage in silos.
The samples were stored 28 days in open pots in nissenhut.
The samples were stored for 28 days in open pots in nissenhut.

[2] = Accelerated storage stability of nBTPT on fertilizer granules (HPLC analysis of nBTPT content); type: physicochemical; conditions: nBTPT formulations (500 ppm powder or Agrotain Ultra) applied onto urea comprising 9% elemental sulphur (samples B, C); 12 days at 70° C. in closed plastic container
Procedure: as §1
For some samples, an accelerated stability test was done after storing these samples at elevated temperatures: • Oven of 30° C., open to air • 70° C. in a closed plastic container
HPLC analysis of nBTPT is done as described in the procedure CEN 15688-2007.
This set of samples was stored at room temperature (20-25° C.) in bags and at elevated temperature (30° C. and 70° C., accelerated stability test).

SMILES | effectivity of the stabilizers (ranking) on stability of nBTPT [1] | nBTPT level after storage [2] [weight %]
[O]=[Mg] [MgO, magnesium oxide] | CaCO3═MgO>CaO>ZnO>Et3N>no stabilizer | –
CCCCNP(N)(N)=S [nBTPT, N-(n-butyl) thiophosphoric triamide] | – | 0
[O]=[Ca] [CaO, calcium oxide] | CaCO3═MgO>CaO>ZnO>Et3N>no stabilizer | –
[O]=[Zn] [ZnO, zinc oxide] | CaCO3═MgO>CaO>ZnO>Et3N>no stabilizer | –
O=C([O-])[O-].[Ca+2] [CaCO3, calcium carbonate] | CaCO3═MgO>CaO>ZnO>Et3N>no stabilizer | –

— patent publication US20190225557A1, “IMPROVED UREA-BASED C[…] SULPHUR AND METHOD FOR THE MANUFACTURE THEREOF” (YARA INT[…], priority 2016, published 2019)
